According to patent US20150320706A1, “FORMULATIONS AND METHODS OF TREATING ALZHEIMER'S DISEASE AND OTHER PROTEINOPATHIES BY COMBINATION THERAPY” (CHIESI FARMACEUTICI S.P.A., priority 2014, published 2015):
Entries after “also recorded” stand apart in the source; their conditions may differ.

Tests used:
sCD40L and TNF-α = test: Neuroinflammation biomarkers in cerebrospinal fluid of MCI patients; assay type: in vivo, human; settings: MCI patients, 200, 400 and 600 mg/day
Method: (§1) Methods: At the end of a 14-week double-blind, placebo-controlled study in 96 MCI patients evaluating three titrated dose regimens of CHF 5074 (200, 400 and 600 mg/day), patients were given the option to enter a 76-week open label extension study. Patients received CHF 5074 at the dose equal to that of their originally assigned double-blind study cohort. Patients were monitored for vital signs, cardiac activity, neuropsychological performance and safety laboratory parameters.

Notch = settings: cited from earlier work
microglia = settings: response to an Aβ42 stimulus; cited from earlier work
[1] = system: MCI (mild cognitively impaired) patients; test: Safety and tolerability after prolonged treatment in MCI patients; assay type: in vivo, human
Method: (§2) In Example 1, the safety and tolerability and cognitive effects of CHF 5074 was analyzed after prolonged treatment in MCI (mild cognitively impaired) patients.
as §1

[2] = in vivo, cited from earlier work
[3] = system: human APP transgenic mice models of AD; settings: transgenic mouse models of AD; cited from earlier work
[4] = system: TNF-α and soluble CD 40 ligand (sCD40L); settings: healthy subjects and individuals with MCI; cited from earlier work
Aβ42 = settings: in vitro; cited from earlier work
[5] = system: MCI (mild cognitively impaired) patients; test: Cognitive tests in open label extension study of CHF 5074 in MCI patients; assay type: in vivo, human
Method: as §2, §1

[6] = system: cognitively normal elderly subjects; settings: cited from earlier work
β-amyloid = settings: cited from earlier work
[7] = system: patients with mild cognitive impairment (MCI); settings: cited from earlier work
[8] = APOE4 non-carriers, Study Week 64

Sequence of β-amyloid (P05067 672-711 limits assumed): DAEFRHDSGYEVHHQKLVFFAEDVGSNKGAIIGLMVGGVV

O=C(O)C1(c2ccc(-c3ccc(Cl)c(Cl)c3)c(F)c2)CC1 [CHF 5074, 1-(3′,4′-dichloro-2-fluorobiphenyl-4-yl)cyclopropanecarboxylic acid]
neuroinflammation biomarkers (CSF sCD40L and TNF-α) (sCD40L and TNF-α): dose-dependently lowered | effects on Notch processing (Notch): lack of effects on Notch processing | M1 inflammatory activity of microglia (microglia): blunting or inhibiting M1 inflammatory activity | M2 phagocytic responses of microglia (microglia): stimulating M2 phagocytic responses | diarrhea, patients reporting ([1]; 200 mg/day): 1.4% | diarrhea, patients reporting ([1]; 400 mg/day): 6.3% | drop-outs for adverse events ([1]; 400 mg/day group, at Study Week 40 (pneumonia)): one | diarrhea, patients reporting ([1]; 600 mg/day): 16.0% | drop-outs for adverse events ([1]; 600 mg/day group, at Study Week 40 (serum creatinine elevation and worsening of cognitive function)): two | safety profile ([1]; MCI patients): acceptable safety profile | tolerability ([1]; prolonged treatment at doses up to and including 400 mg/day): well tolerated | oral absorption ([2]; po): good oral absorption | brain penetration [2]: satisfactory brain penetration | half-life [2]: long half-life | brain plaque deposition [3]: prevent brain plaque deposition; also recorded: inhibit brain plaque deposition | memory deficits [3]: attenuate memory deficits; also recorded: attenuate or reverse associated memory deficits | CSF biomarkers of neuroinflammation, TNF-α and sCD40L [4]: lowers, in a dose-dependent fashion | Aβ42 inhibitory activity (Aβ42): selective Aβ42 inhibitory activity | verbal memory, week 88 change from baseline, comparison of doses ([5]; 200 mg/day and 400 mg/day compared to 600 mg/day (FIG. 1)): surprisingly superior | verbal memory at week 88 (number of words) ([5]; 200 mg/day and 400 mg/day doses (FIG. 8)): dose-dependent improvement | improvements as share of Baseline scores ([5]; APOE4 carriers, Immediate Word Recall and Trail Making Test-A, Study Week 64): 25-38% | Immediate Word Recall, improvement compared to Baseline ([5]; APOE4 carriers, Study Week 64, p=0.012 vs non-carriers): +5.4±1.2 words | Trail Making Test-A, improvement compared to Baseline ([5]; APOE4 carriers, Study Week 64, p=0.034 vs non-carriers): -12.4 ± 2.8 s | Immediate Word Recall, improvement compared to Baseline [5, 8]: +1.4±0.9 words | Trail Making Test-A, improvement compared to Baseline [5, 8]: -5.6 ± 3.3 s | Digit Symbol Substitution Test, improvement compared to Baseline ([5]; interim analysis, 32 patients reaching Study Week 64, p<0.001): +4.8±1.1 matches | Immediate Word Recall, improvement compared to Baseline ([5]; interim analysis, 32 patients reaching Study Week 64, p=0.001): +2.9±0.8 words | Trail Making Test-A, improvement compared to Baseline ([5]; interim analysis, 32 patients reaching Study Week 64, p=0.002): -8.1 ± 2.4 s | Delayed Word Recall, improvement compared to Baseline ([5]; interim analysis, 32 patients reaching Study Week 64, p=0.003): +1.3±0.4 words | Trail Making Test-B, improvement compared to Baseline ([5]; interim analysis, 32 patients reaching Study Week 64, p=0.004): -14.5 ± 4.6 s

COc1ccc2cc([C@H](C)C(=O)O)ccc2c1 [naproxen]
protection from the onset of AD compared to placebo ([6]; 4-year follow-up assessment): 67% | incidence of dementia ([6]; after two years of treatment): neither drug reduced the incidence of dementia

MABT5102A: humanized monoclonal antibody against human Aβ1-40 and Aβ1-42 with an IgG4 backbone which reduces effector function
binding to β-amyloid species (β-amyloid): binds to soluble, oligomeric and fibrillar β-amyloid deposits

CS(=O)(=O)c1ccc(C2=C(c3ccccc3)C(=O)OC2)cc1 [rofecoxib]
outcome of secondary prevention study [7]: negative
